This note sets out measurements from EP0576227A2, “2'-Deoxy-2',2'-difluoro(2,6,8-substituted) purine nucleosides having anti-viral and anti-cancer activity and intermediates” (ELI LILLY AND COMPANY, priority 1992, dated 1993).

The IC50 is the midpoint of a concentration-inhibition curve.

≈ marks a conversion by molar mass, not a printed value.

Test [1] deals with Human Cytomegalovirus (HCMV) strain AD169. Description: Human Cytomegalovirus Test (plaque inhibition in WI-38 cells). The test is classed as cell-based. Particulars: read-out: Percent Plaque Inhibition at Specified µg/ml conc. As for the experimental part: WI-38 cells (American Type Culture Collection; CCL-35) were seeded into 24-well plates in MEM media (GIBCO) supplemented with 10% fetal bovine serum and penicillin/streptomycin. The plates wre incbated at 37°C, in 5 percent carbon dioxide in a humidified incubator for 3 days. Human Cytomegalovirus (HCMV) strain AD169 (American Type Culture Collection) was added to each well (40 plaque forming unites in 100 µl of media) and the virus was allowed to adsorb to the cells for 2 hours at room temperature. The compound of Example 5 was dissolved in 100 percent dimethylsulfoxide at a concentration of 20 mgs/ml and diluted with media to yield final concentrations of 50, 25, 12.5, 6.25, 3.13, 1.6, 0.8, 0.4, 0.2, and 0.1 µg/ml in one set of experiments and 32, 10, 3.2, 1, and 0.32 µg/ml in another set of experiments. Each concentration was done in duplicate. In all experiments, Cytovene (DHPG) was used as a positive control.
The infected cells were incubated for 10 days at 37°C, 5 percent carbon dioxide, in an humidified incubator without changes of media. After incubation, the cells were fixed for at least 15 minutes with 10 percent formalin and rinsed with water. After rinsing, the cells were stained for at least 15 minutes with crystal violet and allowed to dry. HCMV induced plaques were counted with the aid of an iverted microscope. The number of viral plaques appearing in cells treated with each concentration of the Example 5 compound was compared to the number of viral plaques in cells left untreated ("no-drug control") and the percent inhibition of viral plaque formation was calculated. The concentration of the Example 5 compound required to inhibit viral plaque formation by 50 percent was determined using linear regression analysis.

In test [2] the test system is human leukemia cells (CCRF-CEM cell line). The test is described as follows: Growth inhibition of human leukemia cells (CCRF-CEM cytotoxicity screen). The test is classed as cell-based. Particulars: Homo sapiens, CCRF-CEM. From the text:
In another aspect, the invention provides a method of treating susceptible neoplasms in mammals comprising administering to a mammal in need of such treatment a pharmaceutically effective amount of a compound of formula (I). […] The treatment contemplated by the present method includes both medical therapeutic and prophylactic treatment, as appropriate. The specific dosage level of the compound administered according to this invention will, of course, be determined by the circumstances surrounding the case, including, for example, the particular compound administered, the route of administration, and the condition being treated. The compounds are effectively administered orally, topically, or parenterally. […] The representative compounds of formula (I) employed in the present invention are cytotoxic as they inhibit the growth of rapidly dividing human leukemia cells (CCRF-CEM cell line). Table 1 below gives the results of testing several compounds representative of formula (I).

As for `CNc1nc(N)nc2c1ncn2[C@@H]1O[C@H](CO)[C@@H](O)C1(F)F` [Example 5, 2-deoxy-2,2-difluoro-D-ribofuranosyl-1-β-(2-amino-6-methylaminopurine)], the inhibition at 0.2 µg/mL in test [1] (Human betaherpesvirus 5, AD169, 240 h, 0.2 µg/ml, WI-38 cells, 10 days) amounted to 24%. Further, the inhibition at 0.4 µg/mL in test [1] (Human betaherpesvirus 5, AD169, 240 h, 0.4 µg/ml, WI-38 cells, 10 days) came out at 17.2%. Further, the inhibition at 0.8 µg/mL in test [1] (Human betaherpesvirus 5, AD169, 240 h, 0.8 µg/ml, WI-38 cells, 10 days) stood at 38%. Besides, the inhibition at 1.6 µg/mL in test [1] (Human betaherpesvirus 5, AD169, 240 h, 1.6 µg/ml, WI-38 cells, 10 days) was 41.4%. Further, the inhibition at 6.25 µg/mL in test [1] (Human betaherpesvirus 5, AD169, 240 h, 6.25 µg/ml, WI-38 cells, 10 days) was found to be 86.2%. For the same compound, in test [1] (Human betaherpesvirus 5, AD169, 240 h, 12.5 µg/ml, WI-38 cells, 10 days), the inhibition at 12.5 µg/mL stood at 81%. For the same compound, the inhibition at 25 µg/mL in test [1] (Human betaherpesvirus 5, AD169, 240 h, 25 µg/ml, WI-38 cells, 10 days) was found to be 89.6%. In addition, the inhibition at 3.12 µg/mL in test [1] (Human betaherpesvirus 5, AD169, WI-38, 240 h) stood at 62%. This compound showed an IC50 in test [2] of 0.054 µg/mL (≈ 0.171 µM).
